Biological target: T1, Human FXRα Ligand Binding Domain (Homo sapiens, UniProt Q96RI1)
T1 construct: polyhistidine (pRSET-A vector) (N); made in house; host or cells: E. coli BL21 (DE3), pRSET-A vector
T1 sequence (Q96RI1 237-472 isoform Q96RI1-2): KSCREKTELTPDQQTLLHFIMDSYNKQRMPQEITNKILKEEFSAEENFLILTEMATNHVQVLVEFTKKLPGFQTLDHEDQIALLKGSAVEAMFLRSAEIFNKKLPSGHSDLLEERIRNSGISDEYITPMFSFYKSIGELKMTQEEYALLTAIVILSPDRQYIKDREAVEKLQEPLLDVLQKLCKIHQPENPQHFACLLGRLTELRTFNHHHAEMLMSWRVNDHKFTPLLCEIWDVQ
Experiment: FXR Cofactor Binding Assay (FXR LBD / SRC-1 peptide, time resolved fluorescence)
Settings: FXRα LBD with biotinylated SRC-1 (LCD2, 676-700) peptide, read-out: Activity (pEC50) (converted)
Excerpt: Determination of a ligand mediated cofactor peptide interaction to quantify ligand binding to the nuclear receptor Farnesoid X Receptor (FXR). The method measures the ability of putative ligands to modulate the interaction between the purified bacterial expressed FXRα ligand binding domain (LBD) and a synthetic biotinylated peptide based on residues 676-700 of steroid receptor coactivator-1 (SRC-1) (LXXLL-containing domain-2 where L is the amino acid leucine and X indicates any other amino acid (LCD2), 676-700). The sequence of the SRC-1 peptide used is as published in Iannone, M. A., et al., 2001 Cytometry 44:326-337 where the N-terminus was biotinylated (B) and the C-terminus was amidated. Detection of the associated complex was measured by time resolved fluorescence (TRF). The purified LBD of FXR was labeled with biotin then mixed with stoichiometric amounts of allophycocyanin (APC) labeled streptavidin (Molecular Probes). The biotinylated peptide was then mixed with a ½ stoichiometric amount of europium labeled streptavidin (Wallac Inc). Each was then blocked with a 5 fold excess of biotin and allowed to equilibrate for 15 min. Equimolar amounts of receptor and peptide were mixed together and were allowed to equilibrate for at least 30 min prior to the addition to either a variable or constant concentrations of the sample for which the affinity is to be determined. After equilibration, the time-resolved fluorescent signal was quantitated using a fluorescent plate reader. The affinity of the test compound was estimated from a plot of fluorescence versus concentration of test compound added.
A basal level of FXR: peptide formation is observed in the absence of added ligand. Ligands that promote the complex formation induce a concentration-dependent increase in time-resolved fluorescent signal. Compounds which bind equally well to both monomeric FXR and to the FXR: peptide complex would be expected to give no change in signal, whereas ligands which bind preferentially to the monomeric receptor would be expected to induce a concentration-dependent decrease in the observed signal.
Human FXRα Ligand Binding Domain (FXRα LBD) was expressed in E. coli strain BL21 (DE3) as an amino-terminal polyhistidine tagged fusion protein. Expression was under the control of an isopropyl-13-D-thiogalactopyranoside (IPTG) inducible T7 promoter. DNA encoding this recombinant protein is subcloned into the pRSET-A expression vector (Invitrogen). The coding sequence of Human FXRα LBD was derived from Genbank accession number U 68233 (amino acids 237 to 472).
Routinely, 30-40 g cell paste (equivalent to 2-3 liters of the fermentation batch) was resuspended in 200-250 mL Tris buffered saline (TBS), pH 7.2 (25 mM Tris-hydroxymethylamino methane (Tris), 150 mM sodium chloride). Cells were lysed by passing 3 times through a French Press and cell debris was removed by centrifugation (30 minutes, 20,000×gravity, 4° C.). The cleared supernatant was filtered through course pre-filters, and TBS, pH 7.2, 500 mM imidazole was added to obtain a final imidazole concentration of 50 mM. This lysate was loaded onto a column (6×8 cm) packed with Sepharose [Ni^|| charged]Chelation resin (Pharmacia) and pre-equilibrated with TBS pH 7.2/50 mM imidazole. After washing to baseline absorbance with equilibration buffer, the column was washed with one column volume of TBS pH 7.2 containing 90 mM imidazole. FXRα LBD was eluted directly with 365 mM imidazole. Column fractions were pooled and dialyzed against TBS, pH 7.2, containing 0.5 mM EDTA and 5 mM DTT. The dialyzed protein sample was concentrated using Centri-prep 10 K (Amicon) and subjected to size exclusion, using a column (3×90 cm) packed with Sepharose S-75 resin (Pharmacia) pre-equilibrated with TBS, pH 7.2, containing 0.5 mM ethylene diamine tetraacetic acid (EDTA) and 5 mM dithiothreitol (DTT). […]

CC[C@H](C)c1onc(-c2c(Cl)cccc2Cl)c1COc1ccc(-c2ccc3nc(C(=O)O)ccc3c2)cc1 [Example 13, 6-{4-[({3-(2,6-Dichlorophenyl)-5-[(1S)-1-methylpropyl]-4-isoxazolyl}methyl)oxy]phenyl}-2-quinolinecarboxylic acid] and CC[C@@H](C)c1onc(-c2c(Cl)cccc2Cl)c1COc1ccc(-c2ccc3nc(C(=O)O)ccc3c2)cc1 [Example 14, 6-{4-[({3-(2,6-Dichlorophenyl)-5-[(1R)-1-methylpropyl]-4-isoxazolyl}methyl)oxy]phenyl}-2-quinolinecarboxylic acid] fall in the same range of EC50: 0.102 to 1 µM for the first, 0.102 to 1 µM for the second.

CC(C)c1onc(-c2c(Cl)cccc2Cl)c1CCCOc1ccc(-c2ccc3nc(C(=O)O)ccc3c2)cc1 [Example 15, 6-[4-({3-[3-(2,6-Dichlorophenyl)-5-(1-methylethyl)-4-isoxazolyl]propyl}oxy)phenyl]-2-quinolinecarboxylic acid] and CC(C)c1onc(COc2c(Cl)cccc2Cl)c1COc1ccc(-c2ccc3nc(C(=O)O)ccc3c2)cc1 [Example 20, 6-[4-({[3-{[(2,6-Dichlorophenyl)oxy]methyl}-5-(1-methylethyl)-4-isoxazolyl]methyl}oxy)phenyl]-2-quinolinecarboxylic acid] fall in the same range of EC50: 0.102 to 1 µM for the first, 0.102 to 1 µM for the second.

Cc1cccc(C)c1OCc1noc(C(C)C)c1COc1ccc(-c2ccc3cc(C(=O)O)ncc3c2)cc1 [Example 16, 7-[4-({[3-{[(2,6-Dimethylphenyl)oxy]methyl}-5-(1-methylethyl)-4-isoxazolyl]methyl}oxy)phenyl]-3-isoquinolinecarboxylic acid] and Cc1cccc(C)c1OCc1noc(C(C)C)c1COc1ccc(-c2ccc3nc(C(=O)O)ccc3c2)cc1 [Example 18, 6-[4-({[3-{[(2,6-Dimethylphenyl)oxy]methyl}-5-(1-methylethyl)-4-isoxazolyl]methyl}oxy)phenyl]-2-quinolinecarboxylic acid] fall in the same range of EC50: 0.102 to 1 µM for the first, 0.102 to 1 µM for the second.

First: Cc1cccc(C)c1OCc1noc(C2CCC2)c1COc1ccc(-c2ccc3cc(C(=O)O)ncc3c2)cc1 [Example 17, 7-(4-{[(5-Cyclobutyl-3-{[(2,6-dimethylphenyl)oxy]methyl}-4-isoxazolyl)methyl]oxy}phenyl)-3-isoquinolinecarboxylic acid]
Second: CC(C)c1onc(COC2CCCC2)c1COc1ccc(-c2ccc3nc(C(=O)O)ccc3c2)cc1 [Example 27, 6-[4-({[3-[(Cyclopentyloxy)methyl]-5-(1-methylethyl)-4-isoxazolyl]methyl}oxy)phenyl]-2-quinolinecarboxylic acid]
The EC50 of the first is lower: 0.102 to 1 µM for the first, 1.02 to 10 µM for the second.

CC(C)c1onc(COc2c(F)cc(F)cc2F)c1COc1ccc(-c2ccc3nc(C(=O)O)ccc3c2)cc1 [Example 19, 6-(4-{[(5-(1-Methylethyl)-3-{[(2,4,6-trifluorophenyl)oxy]methyl}-4-isoxazolyl)methyl]oxy}phenyl)-2-quinolinecarboxylic acid] and CC(C)c1onc(CNc2c(Cl)cccc2Cl)c1COc1ccc(-c2ccc3nc(C(=O)O)ccc3c2)cc1 [Example 21, 6-[4-({[3-{[(2,6-Dichlorophenyl)amino]methyl}-5-(1-methylethyl)-4-isoxazolyl]methyl}oxy)phenyl]-2-quinolinecarboxylic acid] fall in the same range of EC50: 0.102 to 1 µM for the first, 0.102 to 1 µM for the second.

CC(C)c1onc(CSc2c(Cl)cccc2Cl)c1COc1ccc(-c2ccc3nc(C(=O)O)ccc3c2)cc1 [Example 22, 6-[4-({[3-{[(2,6-Dichlorophenyl)thio]methyl}-5-(1-methylethyl)-4-isoxazolyl]methyl}oxy)phenyl]-2-quinolinecarboxylic acid] and CC(C)c1onc(C[S+]([O-])c2c(Cl)cccc2Cl)c1COc1ccc(-c2ccc3nc(C(=O)O)ccc3c2)cc1 (centres unmarked) [Example 23, 6-[4-({[3-{[(2,6-Dichlorophenyl)sulfinyl]methyl}-5-(1-methylethyl)-4-isoxazolyl]methyl}oxy)phenyl]-2-quinolinecarboxylic acid] fall in the same range of EC50: 0.102 to 1 µM for the first, 0.102 to 1 µM for the second.

First: CC(C)c1onc(CS(=O)(=O)c2c(Cl)cccc2Cl)c1COc1ccc(-c2ccc3nc(C(=O)O)ccc3c2)cc1 [Example 24, 6-[4-({[3-{[(2,6-Dichlorophenyl)sulfonyl]methyl}-5-(1-methylethyl)-4-isoxazolyl]methyl}oxy)phenyl]-2-quinolinecarboxylic acid]
Second: CC(C)c1onc(-c2c(Cl)cncc2Cl)c1COc1ccc(-c2ccc3nc(C(=O)O)ccc3c2)cc1 [Example 25, 6-[4-({[3-(3,5-Dichloro-4-pyridinyl)-5-(1-methylethyl)-4-isoxazolyl]methyl}oxy)phenyl]-2-quinolinecarboxylic acid]
The EC50 of the first is higher: 1.02 to 10 µM for the first, 0.102 to 1 µM for the second.

O=C(O)c1ccc2cc(-c3ccc(OCc4c(C5CCCC5)noc4C4CCCC4)cc3)ccc2n1 [Example 26, 6-(4-{[(3,5-Dicyclopentyl-4-isoxazolyl)methyl]oxy}phenyl)-2-quinolinecarboxylic acid] and CC(C)c1onc(-c2c(Cl)ccnc2Cl)c1COc1ccc(-c2ccc3nc(C(=O)O)ccc3c2)cc1 [Example 28, 6-[4-({[3-(2,4-Dichloro-3-pyridinyl)-5-(1-methylethyl)-4-isoxazolyl]methyl}oxy)phenyl]-2-quinolinecarboxylic acid] fall in the same range of EC50: 0.102 to 1 µM for the first, 0.102 to 1 µM for the second.

Cc1ccnc(C)c1-c1noc(C(C)C)c1COc1ccc(-c2ccc3nc(C(=O)O)ccc3c2)cc1 [Example 29, 6-[4-({[3-(2,4-Dimethyl-3-pyridinyl)-5-(1-methylethyl)-4-isoxazolyl]methyl}oxy)phenyl]-2-quinolinecarboxylic acid] and Cc1cc2cc(-c3ccc(OCc4c(-c5c(Cl)cccc5Cl)noc4C(C)C)cc3)ccc2nc1C(=O)O [Example 31, 6-[4-({[3-(2,6-dichlorophenyl)-5-(1-methylethyl)-4-isoxazolyl]methyl}oxy)phenyl]-3-methyl-2-quinolinecarboxylic acid] fall in the same range of EC50: 0.102 to 1 µM for the first, 0.102 to 1 µM for the second.

CC(C)c1onc(-c2c(Cl)cccc2Cl)c1COc1ccc(-c2cc3ccc(C(=O)O)nc3cc2F)cc1 [Example 30, 6-[4-({[3-(2,6-Dichlorophenyl)-5-(1-methylethyl)-4-isoxazolyl]methyl}oxy)phenyl]-7-fluoro-2-quinolinecarboxylic acid] and Cc1cc(OCc2c(-c3c(Cl)cccc3Cl)noc2C(C)C)ccc1-c1ccc2nc(C(=O)O)ccc2c1 [Example 33, 6-[4-({[3-(2,6-Dichlorophenyl)-5-(1-methylethyl)-4-isoxazolyl]methyl}oxy)-2-methylphenyl]-2-quinolinecarboxylic acid] fall in the same range of EC50: 0.102 to 1 µM for the first, 0.102 to 1 µM for the second.

First: Cc1cc(-c2ccc3nc(C(=O)O)ccc3c2)ccc1OCc1c(-c2c(Cl)cccc2Cl)noc1C(C)C [Example 32, 6-[4-({[3-(2,6-Dichlorophenyl)-5-(1-methylethyl)-4-isoxazolyl]methyl}oxy)-3-methylphenyl]-2-quinolinecarboxylic acid]
Second: Cc1cc(C(=O)O)nc2ccc(-c3ccc(OCc4c(-c5c(Cl)cccc5Cl)noc4C(C)C)cc3)cc12 [Example 34, 6-[4-({[3-(2,6-Dichlorophenyl)-5-(1-methylethyl)-4-isoxazolyl]methyl}oxy)phenyl]-4-methyl-2-quinolinecarboxylic acid]
The EC50 of the first is higher: 0.102 to 1 µM for the first, under 0.1 µM for the second.

Compound Cc1nc2ccc(-c3ccc(OCc4c(-c5c(Cl)cccc5Cl)noc4C(C)C)cc3)cc2cc1C(=O)O [Example 35, 6-[4-({[3-(2,6-Dichlorophenyl)-5-(1-methylethyl)-4-isoxazolyl]methyl}oxy)phenyl]-2-methyl-3-quinolinecarboxylic acid] has an EC50 of 0.102 to 1 µM.
